From patent publication US9856279B2 (AGIOS PHARMACEUTICALS, INC, priority 2011, dated 2018) come the findings set out here.

For one test, the target named is IDH1 R132H (Homo sapiens, UniProt O75874, R132H). The test can be described thus: Assay for IDH1 R132H inhibitors (NADPH/aKG, resazurin detection). It is filed as biochemical. Particulars: enzyme assay of Example 12; read-out: IDH1R132H IC50. Summed up: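 Compound added to substrate mix (8 uM NADPH, 2 mM aKG), then enzyme mix (0.2 μg/ml IDH1 R132H); 50 min RT in 20 mM Tris pH 7.5, 150 mM NaCl, 10 mM MgCl2, 0.03% BSA. Resazurin detection mix (30 μM) 5 min RT; resorufin fluorescence Ex544/Em590.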

A further test concerns HT1080 cells. The test can be described thus: Cellular assay for IDH1m inhibitors: inhibition of 2-HG production (LC-MS, 48 hours) in HT1080 cells. Format: cell-based. Particulars: Homo sapiens, HT-1080; inhibition of 2-HG production, HT1080 cells; read-out: HT1080 IC50. As to the method: Cells (e.g., HT1080 or U87MG) and are grown in T125 flasks in DMEM containing 10% FBS, 1× penicillin/streptomycin and 500 ug/mL G418. They are harvested by trypsin and seeded into 96 well white bottom plates at a density of 5000 cell/well in 100 ul/well in DMEM with 10% FBS. No cells are plates in columns 1 and 12. Cells are incubated overnight at 37° C. in 5% CO2. The next day compounds are made up at 2× concentration and 100 ul are added to each cell well. The final concentration of DMSO is 0.2% and the DMSO control wells are plated in row G. The plates are then placed in the incubator for 48 hours. At 48 hours, 100 μl of media is removed from each well and analyzed by LC-MS for 2-HG concentrations. The cell plate is placed back in the incubator for another 24 hours. At 72 hours post compound addition, 10 mL/plate of Promega Cell Titer Glo reagent is thawed and mixed. The cell plate is removed from the incubator and allowed to equilibrate to room temperature. Then 100 ul of reagent is added to each well of media. The cell plate is then placed on an orbital shaker for 10 minutes and then allowed to sit at room temperature for 20 minutes. The plate is then read for luminescence with an integration time of 500 ms.
The IC50 for inhibition of 2-HG production (concentration of test compound to reduce 2HG production by 50% compared to control) in these two cell lines for various compounds of formula I is set forth in Table 4 above.

Sequence of IDH1 R132H (O75874 whole entry R132H): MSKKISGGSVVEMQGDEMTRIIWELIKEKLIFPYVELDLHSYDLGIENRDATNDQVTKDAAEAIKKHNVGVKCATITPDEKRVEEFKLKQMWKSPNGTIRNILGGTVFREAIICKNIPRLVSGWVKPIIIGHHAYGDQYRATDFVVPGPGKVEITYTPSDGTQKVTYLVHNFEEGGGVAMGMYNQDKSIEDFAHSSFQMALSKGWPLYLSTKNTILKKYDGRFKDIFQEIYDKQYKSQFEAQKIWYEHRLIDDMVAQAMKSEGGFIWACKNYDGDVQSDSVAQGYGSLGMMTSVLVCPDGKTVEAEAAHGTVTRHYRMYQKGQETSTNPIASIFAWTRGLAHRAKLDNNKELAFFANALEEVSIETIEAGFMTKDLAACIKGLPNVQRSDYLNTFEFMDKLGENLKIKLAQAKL

With `N#Cc1cc(-c2cccc3c[n+]([O-])ccc23)c(C2CC2)nc1N1CCN(C(=O)C2CC2)[C@H](C2CC2)C1` [Compound 439, (R)-5-(5-cyano-6-(4-(cyclopropanecarbonyl)-3-cyclopropylpiperazin-1-yl)-2-cyclopropylpyridin-3-yl)isoquinoline 2-oxide], the IC50 on IDH1 R132H and in the test on HT1080 cells was below 500 nM in each case.

Regarding `COCCC(=O)N1CCN(c2nc(C3CC3)c(-c3ccc4nccnc4c3)cc2C#N)C[C@H]1C` [Compound 445, (R)-6-cyclopropyl-2-(4-(3-methoxypropanoyl)-3-methylpiperazin-1-yl)-5-(quinoxalin-6-yl)nicotinonitrile], the IC50 – broadly, the concentration needed to halve the response being measured – on IDH1 R132H was below 500 nM; in the test with HT1080 cells it was 1000 to 10000 nM.

With `N#Cc1cc(-c2cccc3c(C#N)nccc23)c(C2CC2)nc1N1CCN(C(=O)C2CC2)[C@H](C2CC2)C1` [Compound 511, (R)-5-(5-cyano-6-(4-(cyclopropanecarbonyl)-3-cyclopropylpiperazin-1-yl)-2-cyclopropylpyridin-3-yl)isoquinoline-1-carbonitrile], the IC50 at IDH1 R132H is below 500 nM; in the test with HT1080 cells it was 500 to 1000 nM.

`CCO[C@H]1C[C@@H]1C(=O)N1CCN(c2nc(C3CC3)c(-c3cccc4cnccc34)cc2C#N)C[C@H]1C1CC1` [Compound 514, 6-cyclopropyl-2-((R)-3-cyclopropyl-4 ((1S,2S)-2-ethoxycyclopropanecarbonyl)piperazin-1-yl)-5-(isoquinolin-5-yl)nicotinonitrile]: the IC50 at IDH1 R132H and in the test with HT1080 cells was below 500 nM throughout.

With `C=Cc1cncc(-c2cc(C#N)c(N3CCN(C(=O)C4CC4)[C@H](C4CC4)C3)nc2C2CC2)n1` [Compound 515, (R)-2-(4-(cyclopropanecarbonyl)-3-cyclopropylpiperazin-1-yl)-6-cyclopropyl-5-(6-vinylpyrazin-2-yl)nicotinonitrile], the IC50 lay in the range of 500 to 1000 nM at IDH1 R132H and 1000 to 10000 nM with HT1080 cells.

Take `CC(=O)N1CCN(c2nc(C3CC3)c(-c3cccc4cnccc34)cc2C#N)C[C@H]1C` [Compound 516, (R)-2-(4-acetyl-3-methylpiperazin-1-yl)-6-cyclopropyl-5-(isoquinolin-5-yl)nicotinonitrile]: the IC50 at IDH1 R132H is below 500 nM; in the test with HT1080 cells it was 500 to 1000 nM.

For `CCO[C@@H]1C[C@@H]1C(=O)N1CCN(c2nc(C3CC3)c(-c3cccc4cnccc34)cc2C#N)C[C@H]1C` [Compound 517, 6-cyclopropyl-2-((R)-4-((1S,2R)-2-ethoxycyclopropanecarbonyl)-3-methylpiperazin-1-yl)-5-(isoquinolin-5-yl)nicotinonitrile], the IC50 on IDH1 R132H was below 500 nM; in the test with HT1080 cells, 500 to 1000 nM.

As to `C=Cc1nccc(-c2cc(C#N)c(N3CCN(C(=O)C4CC4)[C@H](C4CC4)C3)nc2C2CC2)c1F` [Compound 520, (R)-6-(4-(cyclopropanecarbonyl)-3-cyclopropylpiperazin-1-yl)-2-cyclopropyl-3′-fluoro-2′-vinyl-3,4′-bipyridine-5-carbonitrile], the IC50 on IDH1 R132H was 500 to 1000 nM; in the test with HT1080 cells it was below 500 nM.

`C[C@@H]1CN(c2nc(C3CC3)c(-c3ccnc(C#N)c3)cc2C#N)CCN1C(=O)C1CC1` [Compound 522, (R)-6-(4-(cyclopropanecarbonyl)-3-methylpiperazin-1-yl)-2-cyclopropyl-3,4′-bipyridine-2′,5-dicarbonitrile]: the IC50 at IDH1 R132H was in the range of 500 to 1000 nM; in the test with HT1080 cells it was 1000 to 10000 nM.

For the compound `CCS(=O)(=O)N1CCN(c2cc(C#N)c(N3CCN(C(=O)C4CC4)[C@H](C4CC4)C3)nc2C2CC2)CC1` [Compound 529, (R)-2-(4-(cyclopropanecarbonyl)-3-cyclopropylpiperazin-1-yl)-6-cyclopropyl-5-(4-(ethylsulfonyl)piperazin-1-yl)nicotinonitrile], the results for the IC50 on IDH1 R132H and in the test on HT1080 cells were below 500 nM and 500 to 1000 nM, respectively.

For `C=Cc1ncc(Cl)c(-c2cc(C#N)c(N3CCN(C(=O)C4CC4)[C@H](C4CC4)C3)nc2C2CC2)n1` [Compound 533, (R)-5-(5-chloro-2-vinylpyrimidin-4-yl)-2-(4-(cyclopropanecarbonyl)-3-cyclopropylpiperazin-1-yl)-6-cyclopropylnicotinonitrile], the figures for the IC50 at IDH1 R132H and in the test on HT1080 cells were 500 to 1000 nM and 1000 to 10000 nM, respectively.

`N#Cc1ccc2c(-c3cc(C#N)c(N4CCN(C(=O)CC(F)(F)F)[C@H](C5CC5)C4)nc3C3CC3)cccc2n1` [Compound 535, (R)-5-(5-cyano-2-cyclopropyl-6-(3-cyclopropyl-4-(3,3,3-trifluoropropanoyl)piperazin-1-yl)pyridin-3-yl)quinoline-2-carbonitrile]: the IC50 on IDH1 R132H and in the test with HT1080 cells was below 500 nM in each case.

For the compound `Cn1cc(-c2cc(C#N)c(N3CCN(C(=O)CC(F)(F)F)[C@H](C4CC4)C3)nc2C2CC2)c2ccccc2c1=O` [Compound 536, (R)-6-cyclopropyl-2-(3-cyclopropyl-4-(3,3,3-trifluoropropanoyl)piperazin-1-yl)-5-(2-methyl-1-oxo-1,2-dihydroisoquinolin-4-yl)nicotinonitrile], the IC50 on IDH1 R132H and with HT1080 cells was below 500 nM each time.

As for `N#Cc1cc(-c2ccc3ncsc3c2)c(C2CC2)nc1N1CCN(C(=O)CC(F)(F)F)[C@H](C2CC2)C1` [Compound 537, (R)-5-(benzo[d]thiazol-6-yl)-6-cyclopropyl-2-(3-cyclopropyl-4-(3,3,3-trifluoropropanoyl)piperazin-1-yl)nicotinonitrile], the IC50 at IDH1 R132H is below 500 nM; in the test with HT1080 cells it was 500 to 1000 nM.

With `N#Cc1cc(-c2cnc3[nH]ccc3c2)c(C2CC2)nc1N1CCN(C(=O)CC(F)(F)F)[C@H](C2CC2)C1` [Compound 539, (R)-6-cyclopropyl-2-(3-cyclopropyl-4-(3,3,3-trifluoropropanoyl)piperazin-1-yl)-5-(1H-pyrrolo[2,3-b]pyridin-5-yl)nicotinonitrile], the IC50 at IDH1 R132H is below 500 nM; in the test on HT1080 cells it was 1000 to 10000 nM.

Take `C=C(C)c1cc(-c2cc(C#N)c(N3CCN(C(=O)C4CC4)[C@H](C4CC4)C3)nc2C2CC2)ccn1` [Compound 544, (R)-6-(4-(cyclopropanecarbonyl)-3-cyclopropylpiperazin-1-yl)-2-cyclopropyl-2′-(prop-1-en-2-yl)-3,4′-bipyridine-5-carbonitrile]: the results for the IC50 at IDH1 R132H and in the test on HT1080 cells were below 500 nM and 500 to 1000 nM, respectively.

On to `Cc1cc(-c2cc(C#N)c(N3CCN(C(=O)C4CC4)[C@H](C4CC4)C3)nc2C2CC2)c2ccncc2n1` [Compound 553, (R)-2-(4-(cyclopropanecarbonyl)-3-cyclopropylpiperazin-1-yl)-6-cyclopropyl-5-(2-methyl-1,7-naphthyridin-4-yl)nicotinonitrile], for which the IC50 at IDH1 R132H and in the test with HT1080 cells was below 500 nM each time.

As for `N#Cc1cc(-c2cccc3cnc(Cl)cc23)c(C2CC2)nc1N1CCN(C(=O)C2CC2)[C@H](C2CC2)C1` [Compound 555, (R)-5-(3-chloroisoquinolin-5-yl)-2-(4-(cyclopropanecarbonyl)-3-cyclopropylpiperazin-1-yl)-6-cyclopropylnicotinonitrile], the IC50 on IDH1 R132H is below 500 nM; in the test on HT1080 cells, 500 to 1000 nM.

On to `Cc1cc(-c2cc(C#N)c(N3CCN(C(=O)C4CC4)[C@H](C4CC4)C3)nc2C2CC2)c2cccnc2n1` [Compound 557, (R)-2-(4-(cyclopropanecarbonyl)-3-cyclopropylpiperazin-1-yl)-6-cyclopropyl-5-(2-methyl-1,8-naphthyridin-4-yl)nicotinonitrile], for which the IC50 was below 500 nM at IDH1 R132H and 500 to 1000 nM with HT1080 cells.

Regarding `CCS(=O)(=O)N1CCN(c2cc(C#N)c(N3CCN(C(=O)CC(F)(F)F)[C@H](C4CC4)C3)nc2C2CC2)CC1` [Compound 559], the values for the half-inhibitory concentration (IC50) on IDH1 R132H and in the test on HT1080 cells were below 500 nM and 1000 to 10000 nM, respectively.

`N#Cc1cc(Nc2ccnc3ccccc23)c(C2CC2)nc1N1CCN(C(=O)CC(F)(F)F)[C@H](C2CC2)C1` [Compound 560, (R)-6-cyclopropyl-2-(3-cyclopropyl-4-(3,3,3-trifluoropropanoyl)piperazin-1-yl)-5-(quinolin-4-ylamino)nicotinonitrile]: the IC50 on IDH1 R132H is below 500 nM; in the test with HT1080 cells, 1000 to 10000 nM.

Take `N#Cc1ccc2c(-c3cc(C#N)c(N4CCN(C(=O)C5CC5)[C@H](C5CC5)C4)nc3C3CC3)cccc2n1` [Compound 563, (R)-5-(5-cyano-6-(4-(cyclopropanecarbonyl)-3-cyclopropylpiperazin-1-yl)-2-cyclopropylpyridin-3-yl)quinoline-2-carbonitrile]: the IC50 on IDH1 R132H and with HT1080 cells was below 500 nM in each case.

Turning to `N#Cc1cc(-c2cccc3c(O)nccc23)c(C2CC2)nc1N1CCN(C(=O)C2CC2)[C@H](C2CC2)C1` [Compound 566, (R)-2-(4-(cyclopropanecarbonyl)-3-cyclopropylpiperazin-1-yl)-6-cyclopropyl-5-(1-hydroxyisoquinolin-5-yl)nicotinonitrile], the values for the IC50 on IDH1 R132H and in the test on HT1080 cells were below 500 nM and 500 to 1000 nM, respectively.
